# Reference: patent publication US9611277B2 (Janssen Pharmaceutica NV, priority 2013, dated 2017)
# Where two headings read alike, the source gives them in different places.
# What was measured:
# rat orexin 1 receptor = rat orexin 1 receptor (Rattus norvegicus, UniProt P56718); experiment: Rat orexin 1 receptor radioligand binding; conditions: read-out: rOX1 Ki
# Method in brief: (§1)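 Ki values derive from one-site competition IC50s corrected with the radioligand's predetermined Kd, triplicates per run, averaged over 2-20 runs. Cell homogenates (rat or human OX1R) compete against [^3H]-thiazolyl-oxadiazolyl-pyrrolidine methanone in PBS; 10 μM almorexant sets nonspecific binding; scintillation counting after washing.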
# human orexin 2 receptor = human orexin 2 receptor (Homo sapiens (Human), UniProt O43614); experiment: Human orexin 2 receptor radioligand binding; conditions: read-out: hOX2 Ki
# Chain of human orexin 2 receptor (O43614 whole entry): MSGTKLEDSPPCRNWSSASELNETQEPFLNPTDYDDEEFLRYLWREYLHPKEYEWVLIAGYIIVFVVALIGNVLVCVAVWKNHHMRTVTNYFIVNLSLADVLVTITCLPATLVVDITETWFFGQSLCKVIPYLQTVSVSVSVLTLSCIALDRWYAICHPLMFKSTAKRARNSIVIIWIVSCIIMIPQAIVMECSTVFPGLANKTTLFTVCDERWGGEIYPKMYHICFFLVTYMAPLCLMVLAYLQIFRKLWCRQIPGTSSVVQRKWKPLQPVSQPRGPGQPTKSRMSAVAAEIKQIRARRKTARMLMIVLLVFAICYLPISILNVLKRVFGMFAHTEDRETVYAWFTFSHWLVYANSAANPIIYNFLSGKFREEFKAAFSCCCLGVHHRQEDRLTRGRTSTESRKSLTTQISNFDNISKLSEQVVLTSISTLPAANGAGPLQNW
# Method in brief: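 Ki derived from one-site competition IC50 using predetermined Kd of [3H]-EMPA, triplicate points, 2-20 runs averaged. Binding done on homogenized HEK293 cells stably expressing human orexin 2 receptor, DMSO ≤0.1%, with 10 μM almorexant defining nonspecific binding; filtered, washed, scintillation counted.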
# human orexin 1 receptor = human orexin 1 receptor (Homo sapiens, UniProt O43613); experiment: Human orexin 1 receptor radioligand binding; conditions: read-out: hOX1 Ki
# Method in brief: as §1
# [1] = rat orexin 1 receptor, averages of 2-20 runs
# [2] = human orexin 2 receptor, averages of 2-20 runs
# [3] = human orexin 1 receptor, averages of 2-20 runs
Compound,Ki (rat orexin 1 receptor; [1]),Ki (human orexin 2 receptor; [2]),Ki (human orexin 1 receptor; [3]),Ki (rat orexin 1 receptor),Ki (human orexin 2 receptor),Ki (human orexin 1 receptor)
"O=C(c1ccccc1-c1ncc(F)cn1)N1C[C@@H]2CC[C@H]1[C@H](Oc1cnc(C(F)(F)F)cn1)C2 [Example 272, (2-(5-fluoropyrimidin-2-yl)phenyl)((1S,4R,6R)-6-((5-(trifluoromethyl)pyrazin-2-yl)oxy)-2-azabicyclo[2.2.2]octan-2-yl)methanone]",0.023 µM,1.4 µM,0.011 µM,–,–,–
"O=C(c1cccc(F)c1-c1ncc(F)cn1)N1C[C@@H]2CC[C@H]1[C@H](Oc1cnc(C(F)(F)F)cn1)C2 [Example 273, (3-fluoro-2-(5-fluoropyrimidin-2-yl)phenyl)((1S,4R,6R)-6-((5-(trifluoromethyl)pyrazin-2-yl)oxy)-2-azabicyclo[2.2.2]octan-2-yl)methanone]",0.044 µM,3.8 µM,0.016 µM,–,–,–
"Cc1cnc(C(=O)N2C[C@@H]3CC[C@H]2[C@H](Oc2cnc(C(F)(F)F)cn2)C3)c(-c2ncccn2)c1 [Example 282, (5-methyl-3-(pyrimidin-2-yl)pyridin-2-yl)((1S,4R,6R)-6-((5-(trifluoromethyl)pyrazin-2-yl)oxy)-2-azabicyclo[2.2.2]octan-2-yl)methanone]",0.081 µM,> 10 µM,0.065 µM,–,–,–
"Cc1cnc(C(=O)N2C[C@@H]3CC[C@H]2[C@H](Oc2ncc(C(F)(F)F)cc2F)C3)c(-c2ncccn2)c1 [Example 283, ((1S,4R,6R)-6-((3-fluoro-5-(trifluoromethyl)pyridin-2-yl)oxy)-2-azabicyclo[2.2.2]octan-2-yl)(5-methyl-3-(pyrimidin-2-yl)pyridin-2-yl)methanone]",0.021 µM,> 10 µM,0.027 µM,–,–,–
"O=C(c1cccc(F)c1-c1ncccn1)N1C[C@H]2C[C@@H](Oc3ncc(Cl)cn3)[C@@H]1C2 [Example 284, ((1S,4R,6R)-6-((5-chloropyrimidin-2-yl)oxy)-2-azabicyclo[2.2.1]heptan-2-yl)(3-fluoro-2-(pyrimidin-2-yl)phenyl)methanone]",0.045 µM,5.6 µM,0.047 µM,–,–,–
"Cc1ccc(-c2ncccn2)c(C(=O)N2C[C@H]3C[C@@H](Oc4ncc(Cl)cn4)[C@@H]2C3)n1 [Example 285, ((1S,4R,6R)-6-((5-chloropyrimidin-2-yl)oxy)-2-azabicyclo[2.2.1]heptan-2-yl)(6-methyl-3-(pyrimidin-2-yl)pyridin-2-yl)methanone]",0.117 µM,6 µM,0.215 µM,–,–,–
"O=C(c1ccccc1-n1nccn1)N1C[C@H]2C[C@@H](Oc3ccc4cccnc4n3)[C@@H]1C2 [Example 287, ((1S,4R,6R)-6-((1,8-naphthyridin-2-yl)oxy)-2-azabicyclo[2.2.1]heptan-2-yl)(2-(2H-1,2,3-triazol-2-yl)phenyl)methanone]",0.155 µM,2.7 µM,0.226 µM,–,–,–
"Cc1cnc(C(=O)N2C[C@H]3C[C@@H](Oc4ccc(C(F)F)cn4)[C@@H]2C3)c(-c2ncccn2)c1 [Example 288, ((1S,4R,6R)-6-((5-(difluoromethyl)pyridin-2-yl)oxy)-2-azabicyclo[2.2.1]heptan-2-yl)(5-methyl-3-(pyrimidin-2-yl)pyridin-2-yl)methanone]",0.029 µM,5.1 µM,0.039 µM,–,–,–
"Cc1cnc(-c2ncccn2)c(C(=O)N2C[C@H]3C[C@@H](Oc4ccc(C(F)(F)F)cn4)[C@@H]2C3)c1 [Example 290, (5-methyl-2-(pyrimidin-2-yl)pyridin-3-yl)((1S,4R,6R)-6-((5-(trifluoromethyl)pyridin-2-yl)oxy)-2-azabicyclo[2.2.1]heptan-2-yl)methanone]",0.097 µM,> 10 µM,0.188 µM,–,–,–
"Cc1noc(-c2cc(F)ccc2C(=O)N2C[C@H]3C[C@@H](Oc4ccc(C(F)(F)F)cn4)[C@@H]2C3)n1 [Example 291, (4-fluoro-2-(3-methyl-1,2,4-oxadiazol-5-yl)phenyl)((1S,4R,6R)-6-((5-(trifluoromethyl)pyridin-2-yl)oxy)-2-azabicyclo[2.2.1]heptan-2-yl)methanone]",0.043 µM,4.2 µM,0.082 µM,–,–,–
"O=C(c1c(F)cccc1-c1ncco1)N1C[C@H]2C[C@@H](Oc3ccc(C(F)(F)F)cn3)[C@@H]1C2 [Example 292, (2-fluoro-6-(oxazol-2-yl)phenyl)((1S,4R,6R)-6-((5-(trifluoromethyl)pyridin-2-yl)oxy)-2-azabicyclo[2.2.1]heptan-2-yl)methanone]",0.019 µM,0.673 µM,0.04 µM,–,–,–
Cc1cnc(C(=O)N2C[C@H]3C[C@@H](Oc4ccc(C(F)(F)F)cn4)[C@@H]2C3)c(-n2ccnn2)c1 [Example 294],0.166 µM,1.4 µM,0.58 µM,–,–,–
COc1ccc(C(=O)N2C[C@H]3C[C@@H](Oc4ccc(C(F)(F)F)cn4)[C@@H]2C3)c(-c2ncccn2)c1 [Example 295],0.019 µM,5.8 µM,0.034 µM,–,–,–
Cc1cnc(C(=O)N2C[C@H]3C[C@@H](Oc4ccc(C(F)(F)F)cn4)[C@@H]2C3)c(-c2ncccn2)c1 [Example 298],0.024 µM,> 10 µM,0.029 µM,–,–,–
O=C(c1ccccc1-n1nccn1)N1C[C@H]2C[C@@H](Oc3ncc(Cl)cn3)[C@@H]1C2 [Example 300],0.092 µM,3.7 µM,0.112 µM,–,–,–
"((1S,4S,6R)-6-((5-chloropyrimidin-2-yl)amino)-2-azabicyclo[2.2.1]heptan-2-yl)(2-(5-fluoropyrimidin-2-yl)phenyl)methanone [Example 241]",–,–,–,0.021 µM,0.971 µM,0.012 µM

# More lines, main results first:
Ki (rat orexin 1 receptor; [1]),Ki (human orexin 2 receptor; [2]),Ki (human orexin 1 receptor; [3]),Compound,Ki (rat orexin 1 receptor),Ki (human orexin 2 receptor),Ki (human orexin 1 receptor)
0.004 µM,0.363 µM,0.005 µM,"O=C(c1cccc(F)c1-c1ncccn1)N1C[C@@H]2CC[C@H]1[C@H](Oc1ccc(Br)cn1)C2 [Example 269, ((1S,4R,6R)-6-((5-bromopyridin-2-yl)oxy)-2-azabicyclo[2.2.2]octan-2-yl)(3-fluoro-2-(pyrimidin-2-yl)phenyl)methanone]",–,–,–
0.004 µM,0.2 µM,0.003 µM,"O=C(c1ccccc1-n1nccn1)N1C[C@@H]2CC[C@H]1[C@H](Oc1ccc(Cl)cn1)C2 [Example 270, (2-(2H-1,2,3-triazol-2-yl)phenyl)((1S,4R,6R)-6-((5-chloropyridin-2-yl)oxy)-2-azabicyclo[2.2.2]octan-2-yl)methanone]",–,–,–
0.007 µM,0.452 µM,0.008 µM,"O=C(c1cccc(F)c1-c1ncccn1)N1C[C@@H]2CC[C@H]1[C@H](Oc1ccc(Cl)cn1)C2 [Example 271, ((1S,4R,6R)-6-((5-chloropyridin-2-yl)oxy)-2-azabicyclo[2.2.2]octan-2-yl)(3-fluoro-2-(pyrimidin-2-yl)phenyl)methanone]",–,–,–
0.017 µM,0.998 µM,0.015 µM,"O=C(c1ccc(F)cc1-c1ncccn1)N1C[C@@H]2CC[C@H]1[C@H](Nc1cnc(C(F)(F)F)cn1)C2 [Example 277, (4-fluoro-2-(pyrimidin-2-yl)phenyl)((1S,4R,6R)-6-((5-(trifluoromethyl)pyrazin-2-yl)amino)-2-azabicyclo[2.2.2]octan-2-yl)methanone]",–,–,–
0.014 µM,0.243 µM,0.007 µM,"O=C(c1cc(F)ccc1-c1ncccn1)N1C[C@@H]2CC[C@H]1[C@H](Nc1cnc(C(F)(F)F)cn1)C2 [Example 278, (5-fluoro-2-(pyrimidin-2-yl)phenyl)((1S,4R,6R)-6-((5-(trifluoromethyl)pyrazin-2-yl)amino)-2-azabicyclo[2.2.2]octan-2-yl)methanone]",–,–,–
0.011 µM,0.177 µM,0.013 µM,"O=C(c1c(F)cccc1-c1ncccn1)N1C[C@@H]2CC[C@H]1[C@H](Nc1cnc(C(F)(F)F)cn1)C2 [Example 279, (2-fluoro-6-(pyrimidin-2-yl)phenyl)((1S,4R,6R)-6-((5-(trifluoromethyl)pyrazin-2-yl)amino)-2-azabicyclo[2.2.2]octan-2-yl)methanone]",–,–,–
0.007 µM,0.189 µM,0.004 µM,"O=C(c1ccccc1-c1ncccn1)N1C[C@@H]2CC[C@H]1[C@H](Nc1cnc(C(F)(F)F)cn1)C2 [Example 280, (2-(pyrimidin-2-yl)phenyl)((1S,4R,6R)-6-((5-(trifluoromethyl)pyrazin-2-yl)amino)-2-azabicyclo[2.2.2]octan-2-yl)methanone]",–,–,–
0.005 µM,0.336 µM,0.019 µM,"O=C(c1cccc(F)c1-c1ncccn1)N1C[C@@H]2CC[C@H]1[C@H](Oc1ncc(C(F)(F)F)cc1Cl)C2 [Example 281, ((1S,4R,6R)-6-((3-chloro-5-(trifluoromethyl)pyridin-2-yl)oxy)-2-azabicyclo[2.2.2]octan-2-yl)(3-fluoro-2-(pyrimidin-2-yl)phenyl)methanone]",–,–,–
0.016 µM,0.535 µM,0.026 µM,O=C(c1cc(F)ccc1-c1ncco1)N1C[C@H]2C[C@@H](Oc3ccc(C(F)(F)F)cn3)[C@@H]1C2 [Example 293],–,–,–
0.008 µM,0.474 µM,0.014 µM,O=C(c1ncccc1-c1ncccn1)N1C[C@H]2C[C@@H](Oc3ccc(C(F)(F)F)cn3)[C@@H]1C2 [Example 296],–,–,–
0.01 µM,0.606 µM,0.01 µM,O=C(c1ccccc1-c1ncccn1)N1C[C@H]2C[C@@H](Oc3ccc(C(F)(F)F)cn3)[C@@H]1C2 [Example 297],–,–,–
0.009 µM,0.456 µM,0.007 µM,"(3-fluoro-2-(pyrimidin-2-yl)phenyl)((1S,4R,6R)-6-((5-(trifluoromethyl)pyrazin-2-yl)amino)-2-azabicyclo[2.2.2]octan-2-yl)methanone [Example 80]",–,–,–
